According to publication PMC9046089, “CCNE1 amplification is synthetic lethal with PKMYT1 kinase inhibition” (Nature, 2022):
“And” between values parts separate entries of the source, which are not always exact repeats. Equal values may be shown once.

What was measured:
[1] = system: cytoplasmic cyclin B; test: QIBC of cytoplasmic cyclin B intensity in EdU+ cells after HU or gemcitabine; format: cell-based; details: 48 h
Protocol: Before collection, cells were pulsed with 20 μM EdU (5-ethynyl-2-deoxyuridine, Life Technologies cat. no. A10044) for 30 min and then washed with PBS and fixed with 4% paraformaldehyde (PFA) in PBS for 15 min at room temperature. Cells were then rinsed with PBS and permeabilized using 0.3% Triton X-100/PBS for 30 min. For chromatin-bound MCM measurements, cells were pre-extracted for 15 min on ice with CSK buffer (300 mM sucrose, 100 mM NaCl, 3 mM MgCl2, 10 mM PIPES pH 7.0, 0.5% v/v Triton-X 100) before PFA fixation. […] Fresh blocking buffer containing primary antibodies was added for 2 h. Cells were rinsed three times with PBS and then blocking buffer, with secondary antibodies and 0.4 μg ml^−1 DAPI (4,6-diamidino-2-phenylindole, Sigma-Aldrich, cat. no. D9542) was added for 1 h. After rinsing with PBS, immunocomplexes were fixed again using 4% PFA/PBS for 5 min.
Cells were fixed, permeabilized and stained in the same manner as immunofluorescence described above. Wells were filled with 200 μl PBS and images were acquired at the Network Biology Collaborative Centre (LTRI) on an InCell Analyzer 6000 automated microscope (GE Life Sciences) with a 20× objective. Image analysis was performed using Cellprofiler 3.1.9 and RStudio v1.2.5019[57] (Supplementary Fig. 4).

[2] = system: cyclin B, CDK1, CDK1-pT14; test: Immunoblot of cyclin B, CDK1 and CDK1-pT14 after HU or gemcitabine; details: for Quantitation of CDK1 (immunoblot of whole cell lysates) / Quantitation of CDK1-pT14 relative to total CDK1 (immunoblot of whole cell lysates) / Quantitation of cyclin B (immunoblot of whole cell lysates): FT282-hTERT-p53-R175H, DMSO = 1; for levels of cyclin B or CDK1: immunoblot and QIBC; for CDK1 pT14 levels: immunoblot, controlling for total CDK1
[3] = system: HCC1569 cells; test: Cell proliferation assay (Incucyte growth inhibition, synergy); format: cell-based; details: for % growth relative to untreated: RP-6306 0
From the text: Per cent confluence relative to a non-treated control was used to evaluate growth inhibition induced by test compounds. […] (https://synergyfinder.fimm.fi).

SMILES: NC(=O)NO [hydroxyurea]
- fold-change of cytoplasmic cyclin B intensity in EdU+ cells ([1]; FT282-hTERT-p53-R175H CCNE1 high (C3), HU 50 mM (so in the source), listed as HU): 0.9979 and 0.9823 and 1.013
- fold-change of cytoplasmic cyclin B intensity in EdU+ cells ([1]; FT282-hTERT-p53-R175H CCNE1 high (C3), HU 100 mM (so in the source), listed as HU): 1.038 and 1.0461 and 1.056
- fold-change of cytoplasmic cyclin B intensity in EdU+ cells ([1]; FT282-hTERT-p53-R175H CCNE1 high (C3), HU 200 mM (so in the source), listed as HU): 1.095 and 1.0628 and 1.094
- fold-change of cytoplasmic cyclin B intensity in EdU+ cells ([1]; FT282-hTERT-p53-R175H CCNE1 high (C3), HU 400 mM (so in the source), listed as HU): 1.408 and 1.403 and 1.354
- fold-change of cytoplasmic cyclin B intensity in EdU+ cells ([1]; FT282-hTERT-p53-R175H WT, HU 50 mM (so in the source), listed as HU): 1.011 and 1.029 and 1.0186
- fold-change of cytoplasmic cyclin B intensity in EdU+ cells ([1]; FT282-hTERT-p53-R175H WT, HU 100 mM (so in the source), listed as HU): 1.025 and 1.031 and 1.053
- fold-change of cytoplasmic cyclin B intensity in EdU+ cells ([1]; FT282-hTERT-p53-R175H WT, HU 200 mM (so in the source), listed as HU): 1.0835 and 1.059 and 1.12
- fold-change of cytoplasmic cyclin B intensity in EdU+ cells ([1]; FT282-hTERT-p53-R175H WT, HU 400 mM (so in the source), listed as HU): 1.261 and 1.177 and 1.385
- Quantitation of CDK1 (immunoblot of whole cell lysates) ([2]; 400 µM HU, listed as HU): 1.2117 and 1.452 and 2.133
- Quantitation of CDK1-pT14 relative to total CDK1 (immunoblot of whole cell lysates) ([2]; 400 µM HU, listed as HU): 1.45 and 1.634 and 1.7444
- Quantitation of cyclin B (immunoblot of whole cell lysates) ([2]; 400 µM HU, listed as HU): 1.625 and 1.428 and 1.053
- levels of cyclin B or CDK1 [2]: did not detect increased levels
- CDK1 pT14 levels [2]: increased

SMILES: Nc1ccn([C@@H]2O[C@H](CO)[C@@H](O)C2(F)F)c(=O)n1 [gemcitabine]
- growth relative to DMSO control ([3]; 0.556 nM gemcitabine, DMSO = 100): 76.36 and 70.43
- % growth relative to untreated ([3]; gemcitabine 0.0524288 nM): 96.4701%
- % growth relative to untreated ([3]; gemcitabine 0.131072 nM): 85.3567%
- % growth relative to untreated ([3]; gemcitabine 0.32768 nM): 85.2938%
- % growth relative to untreated ([3]; gemcitabine 0.8192 nM): 45.6374%
- % growth relative to untreated ([3]; gemcitabine 2.048 nM): 16.2355%
- % growth relative to untreated ([3]; gemcitabine 5.12 nM): 11.6895%
- % growth relative to untreated ([3]; gemcitabine 12.8 nM): 9.354%
- % growth relative to untreated ([3]; gemcitabine 32 nM): 7.468%
- % growth relative to untreated ([3]; gemcitabine 80 nM): 5.95%
- fold-change of cytoplasmic cyclin B intensity in EdU+ cells ([1]; FT282-hTERT-p53-R175H CCNE1 high (C3), gemcitabine 5 nM): 1.161 and 1.404 and 1.38
- fold-change of cytoplasmic cyclin B intensity in EdU+ cells ([1]; FT282-hTERT-p53-R175H WT, gemcitabine 5 nM): 1.346 and 1.467 and 1.135
- Quantitation of CDK1 (immunoblot of whole cell lysates) ([2]; 5 nM Gemcitabine): 1.203 and 0.9791 and 1.593
- Quantitation of CDK1-pT14 relative to total CDK1 (immunoblot of whole cell lysates) ([2]; 5 nM Gemcitabine): 1.528 and 2.085 and 1.888
- Quantitation of cyclin B (immunoblot of whole cell lysates) ([2]; 5 nM Gemcitabine): 1.877 and 1.201 and 1.262
- levels of cyclin B or CDK1 [2]: did not detect increased levels
- CDK1 pT14 levels [2]: increased
